Experimental data as given in patent US9238632B2, “3-cyanoanilinoalkylarylpiperazine derivative and use thereof in preparing drugs” (NHWA Pharma. Corporation, priority 2012, dated 2016).
Counter-ions that a name gives are not always drawn.

Tests used:
[1] = target: T1, 5-HT1A receptor (Rattus norvegicus, UniProt P19327); test: In vitro competitive binding test to 5-HT1A receptor ([3H]-8-OH-DPAT, rat cerebral cortex membranes); conditions: 10 μmol/L compound; hydrochloride salts; rat cerebral cortex membrane; unit (I %); read-out: 5-HT1A affinity [3H]-8-OH-DPAT (inhibition rate of radioligand binding)
T1 construct: The supernatant is discarded and the precipitate (membrane receptor) is stocked; from tissue; host or cells: SD rat cerebral cortex membranes
T1 sequence (P19327 1-422): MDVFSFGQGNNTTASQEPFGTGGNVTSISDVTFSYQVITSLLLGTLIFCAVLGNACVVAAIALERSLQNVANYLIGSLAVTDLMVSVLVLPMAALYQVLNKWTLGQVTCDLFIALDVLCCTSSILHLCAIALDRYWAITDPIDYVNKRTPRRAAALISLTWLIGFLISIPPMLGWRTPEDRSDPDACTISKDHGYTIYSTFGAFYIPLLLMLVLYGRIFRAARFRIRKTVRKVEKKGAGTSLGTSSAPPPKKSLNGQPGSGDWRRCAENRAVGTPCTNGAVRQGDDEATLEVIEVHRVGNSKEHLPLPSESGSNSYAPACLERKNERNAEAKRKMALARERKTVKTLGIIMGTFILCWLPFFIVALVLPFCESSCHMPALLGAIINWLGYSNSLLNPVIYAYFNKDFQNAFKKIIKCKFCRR
Experimental: (§1) Animals: clean grade SD rats, female and male, 250-300 g, purchased from Nanjing QingLongshan animal breeding center.
(§2) Radioligand: [^3H]-8-OH-DPAT, [^3H]-Ketanserin, purchased from PerkinElmer company; 5-HT and Methysergide, purchased from Sigma company.
Preparation of 5-HT1A buffer solution: Tris-HCl buffer solution (0.05M, 1000 ml) is added with certain amount of ascorbic acid, pargyline and CaCl2, to give final concentrations of 0.1%(ascorbic acid), 10 um (pargyline) and 4 mM (CaCl2) separately.
(§3) Preparation of radioligand: 50 μl mother liquor is diluted to 5 ml with anhydrous ethanol, and stocked for use.
(§4) Preparation of non-labeling ligand: appropriate amounts of 5-HT and Methysergide are dissolved in ultrapure water to give solutions with final concentrations of 2*10^−5M respectively.
(§5) Preparation of solutions of various test drugs: appropriate amount of each drug is first diluted to 1 ml with ultrapure water as stock solution. When needed, 10 μl of the stock solution is diluted to 1 ml to reach a level of 10^−5M.
(§6) Rats are decapitated to get the brains. The target tissues (left and right cerebral cortex) are separated on ice, added with 10-fold volume (V/W) of ice-cold buffer, and homogenized with tissue Homogenizer for several seconds 3 times to form tissue homogenate. The tissue homogenate is centrifuged with low temperature superb centrifuge (12000 r/min) 3 times, with each for 20 minutes. The supernatant is discarded and the precipitate (membrane receptor) is stocked in −80° C. ultralow temperature freezer.
(§7) The membrane receptor is added with certain volume of ice-cold buffer and homogenized to make membrane receptor solutions at certain concentrations.
(§8) Various reaction solutions are added in the following sequences and ratios:
(§9) Total binding tube: 100 μl membrane receptor+100 μl buffer+10 μl radioligand
(§10) Non-specific tube: 100 μl membrane receptor+100 μl non-labeling ligand+10 μl radioligand
(§11) Test compound tube: 100 μl membrane receptor+100 μl drug solution+10 μl radioligand
(§12) Above tubes are put in 37° C. water bath immediately after finishing adding radioligand into each of them and then incubated for 25 min. After 25 min, the tubes are put in ice water to quench the reaction. Each tube is poured into suction filtration device to filter, and the filter membrane is washed with 5-10 ml ice-cold buffer twice. The filter membrane is dried in 85° C. oven, and then put into test tubes, and added with certain amount of scintillation liquid to soak overnight. Radioactivity is determined using liquid scintillation counter.
(§13) Each compound is tested in duplicate, and the tests are carried out independently twice.

[2] = target: hSERT (Homo sapiens, UniProt P31645); test: In vitro inhibition of serotonin reuptake ([3H]-5-HT) in cells stably expressing hSERT; conditions: read-out: Inhibition rates of SERT reuptake [3H]-5-HT
Experimental: Positive control compound: fluoxetine.
Sample treatment: about 1 mg of compound is weighted and added with relative amount of DMSO to prepare 10^−2M stock solution. Before use, the stock solution is diluted with HBSS buffer to relative concentrations. Each sample is dissolved in DMSO completely. The dilution is clear and without obvious cloudy and formation of precipitate after adding with buffer.
(1) Cells which can stably express hSERT are seeded into 24-well plates respectively.
(2) Experiments are started when the cell confluence reaches 80-90%.
(3) Liquids in the plates are discarded, the plates are washed with PBS twice at room temperature.
(5) Plates are incubated at 37° C. for 10 min after slight oscillation.
(6) Then 20 μl radioisotope is added (cpm: about 20000).
(7) Plates are incubated at 37° C. for 5 min after slight oscillation.
(8) Liquids in the plates are discarded, the plates are washed with ice-cold PBS twice, all the liquids in the plates are removed away.
(9) NaOH (2M, 100 μl) is added into each well to lyse the cells. All the lysates are combined and put on GF/C glass fiber filter paper.
(10) The filter papers are dried and put in 0.5 ml centrifuge tube, 500 μl lipid soluble scintillation liquid are added. Radioactivity is determined by MicroBeta liquid scintillation counter. Each concentration is tested intriplicate, and tests are carried out independently twice.
Test concentration is 10 μmol/L. The positive drug provided is set as control (10 μmol/L) in each experiment. The experimental processes are the same as the above process.

[3] = target: T2, 5-HT2A receptor (Rattus norvegicus, UniProt P14842); test: In vitro competitive binding test to 5-HT2A receptor ([3H]-Ketanserin, rat cerebral cortex membranes); conditions: 10 μmol/L compound; hydrochloride salts; rat cerebral cortex membrane; unit (I %); read-out: 5-HT2A affinity [3H]-Ketanserin (inhibition rate of radioligand binding)
T2 construct: The supernatant is discarded and the precipitate (membrane receptor) is stocked; from tissue; host or cells: SD rat cerebral cortex membranes
Experimental: as §1, §2
Preparation of 5-HT2A buffer solution: Tris (6.05 g) is dissolved in ultrapure water (1000 ml). PH is adjusted to 7.4 with HCl. Tris-HCl buffer solution (0.05M) is used.
as §3, §4, §5, §6, §7, §8, §9, §10, §11, §12, §13

[4] = test system: mice tail suspension test; test: Mice tail suspension test (immobility time); type: in vivo, KM mice; conditions: 40 mg/kg intragastric, 1 h post dose, last 4 min of 6 min, n=10, mean ± SD
Experimental: Control drug: duloxetine hydrochloride, fluoxetine hydrochloride
A few days before the experiment, mice with qualified body weight are selected and divided into groups. The experiments are carried out in 2 days. In D1, mice are put on bar of tail suspension instrument for 6 min, the immobility time of the last 4 min are recorded. […] Blank control group, positive control group and each test compound group are set.
The mean values of immobility time for each group are calculated, the results are expressed as “mean±standard deviation”.

Chain of hSERT (P31645 whole entry): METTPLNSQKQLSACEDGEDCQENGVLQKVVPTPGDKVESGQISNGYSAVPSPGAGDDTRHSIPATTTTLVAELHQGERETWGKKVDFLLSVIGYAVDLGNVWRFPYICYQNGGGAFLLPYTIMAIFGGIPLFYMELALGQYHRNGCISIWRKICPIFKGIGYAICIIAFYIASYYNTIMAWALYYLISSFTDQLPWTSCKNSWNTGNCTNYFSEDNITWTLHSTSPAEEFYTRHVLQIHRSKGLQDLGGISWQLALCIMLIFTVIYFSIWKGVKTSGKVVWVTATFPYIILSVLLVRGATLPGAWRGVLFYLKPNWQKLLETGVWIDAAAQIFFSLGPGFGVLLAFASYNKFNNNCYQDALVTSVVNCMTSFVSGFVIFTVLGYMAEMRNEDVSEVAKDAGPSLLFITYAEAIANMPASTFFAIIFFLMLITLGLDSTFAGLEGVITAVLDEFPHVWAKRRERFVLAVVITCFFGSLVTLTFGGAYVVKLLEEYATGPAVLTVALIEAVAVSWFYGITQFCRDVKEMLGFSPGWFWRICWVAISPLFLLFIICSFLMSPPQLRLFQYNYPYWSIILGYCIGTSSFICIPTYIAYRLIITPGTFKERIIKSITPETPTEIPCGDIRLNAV
T2 sequence (P14842 whole entry): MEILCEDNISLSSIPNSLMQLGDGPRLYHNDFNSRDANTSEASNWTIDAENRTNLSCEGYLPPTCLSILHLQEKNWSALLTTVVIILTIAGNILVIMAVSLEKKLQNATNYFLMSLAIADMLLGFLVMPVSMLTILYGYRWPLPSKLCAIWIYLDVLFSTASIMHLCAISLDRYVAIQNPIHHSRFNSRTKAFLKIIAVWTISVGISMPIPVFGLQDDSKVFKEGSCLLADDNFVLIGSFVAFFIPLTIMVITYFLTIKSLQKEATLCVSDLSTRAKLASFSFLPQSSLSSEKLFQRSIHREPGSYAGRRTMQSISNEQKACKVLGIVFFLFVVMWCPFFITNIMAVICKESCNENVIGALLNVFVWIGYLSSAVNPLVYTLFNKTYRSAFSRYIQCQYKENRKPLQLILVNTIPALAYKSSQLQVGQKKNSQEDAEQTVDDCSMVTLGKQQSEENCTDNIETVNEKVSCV

Row | Compound | inhibition at 10 µM [1] [%] | inhibition at 10 µM [2] [%] | inhibition at 10 µM [3] [%] | Immobility time [4] [S] | Immobility time ([4]; listed as fluoxetine hydrochloride) | Immobility time ([4]; hydrochloride) [S] | Immobility time ([4]; listed as dutoxetine hydrochloride, hydrochloride)
1 | COc1ccccc1N1CCN(CCN(C)c2cccc(C#N)c2)CC1 [III-1, 3-((2-(4-(2-methoxyphenyl)piperazin-1-yl)ethyl)methylamino)benzonitrile] | 154 | 97.3 | 98.9 | – | – | – | –
2 | CN(CCN1CCN(c2cccc(Cl)c2Cl)CC1)c1cccc(C#N)c1 [III-4, 3-((2-(4-(2,3-dichlorophenyl)piperazin-1-yl)ethyl)methylamino)benzonitrile] | 126 | 93.4 | 104 | – | – | – | –
3 | CNCCC(Oc1ccc(C(F)(F)F)cc1)c1ccccc1 (stereo not shown) [fluoxetine] | – | – | – | 69.9 ± 27.4 | significantly decreased immobility time | – | –
4 | CCN(CCCN1CCN(c2ccccc2OC)CC1)c1cccc(C#N)c1 [III-14, 3-((3-(4-(2-methoxyphenyl)piperazin-1-yl)propyl)ethylamino)benzonitrile] | 112 | 98.2 | 135 | – | – | – | –
5 | COc1cncnc1N1CCN(CCCN(C)c2cccc(C#N)c2)CC1 [III-12] | 114 | 94.4 | 132 | – | – | – | –
6 | Cc1cccc(N2CCN(CCCN(C)c3cccc(C#N)c3)CC2)c1C [III-11, 3-((3-(4-(2,3-dimethylphenyl)piperazin-1-yl)propyl)methylamino)benzonitrile] | 102 | 96.6 | 145 | – | – | – | –
7 | COc1cncnc1N1CCN(CCN(C)c2cccc(C#N)c2)CC1 [III-7] | 83.2 | 81.7 | 101 | – | – | – | –
8 | CNCC[C@H](Oc1cccc2ccccc12)c1cccs1 [dutoxetine, duloxetine hydrochloride] | – | – | – | – | – | 28.2 ± 27.3 | significantly decreased immobility time
9 | COc1c(Cl)ncnc1N1CCN(CCN(C)c2cccc(C#N)c2)CC1 [III-6, 3-((2-(4-(6-chloro-5-methoxylpyrimidin-1-yl)piperazin-1-yl)ethyl)methylamino)benzonitrile] | 91.6 | 98.3 | 84.5 | – | – | – | –
10 | CN(CCN1CCN(c2cccc(Cl)c2)CC1)c1cccc(C#N)c1 [III-3, 3-((2-(4-(3-chlorophenyl)piperazin-1-yl)ethyl)methylamino)benzonitrile] | 155 | 98.3 | 107 | – | – | – | –
11 | COc1ccccc1N1CCN(CCCN(C)c2cccc(C#N)c2)CC1 [III-9, 3-((3-(4-(2-methoxyphenyl)piperazin-1-yl)propyl)methylamino)benzonitrile] | 125 | 104 | 154 | – | – | – | –
12 | Cc1cccc(N2CCN(CCN(C)c3cccc(C#N)c3)CC2)c1C [III-5, 3-((2-(4-(2,3-dimethylphenyl)piperazin-1-yl)ethyl)methylamino)benzonitrile] | 121 | 99.7 | 134 | – | – | – | –
13 | CN(CCCN1CCN(c2cccc(Cl)c2Cl)CC1)c1cccc(C#N)c1 [III-13, 3-((3-(4-(2,3-dichlorophenyl)piperazin-1-yl)propyl)methylamino)benzonitrile] | 119 | 86.9 | 149 | – | – | – | –
14 | CN(CCN1CCN(c2cccc(C(F)(F)F)c2)CC1)c1cccc(C#N)c1 [III-2, 3-(methyl(2-(4-(3-trifluoromethylphenyl)piperazin-1-yl)ethyl)amino)benzonitrile] | 119 | 97.8 | 131 | – | – | – | –
